Reference: US20160220542A1, “SYNERGISTIC ACTIVITY OF MODULATORS OF THE NO METABOLISM AND OF NADPH OXIDASE IN THE SENSITISATION OF TUMOR CELLS” (Universitaetsklinikum Freiburg, priority 2010, published 2016)

Target: T1, NADPH oxidase (Rattus norvegicus, UniProt Q9WV87)
T1 construct: 12 500 208Fsrc3 cells (100 μl) received the stated concentrations of Cu SOD and 120 μM EUK-8; endogenous in cells; host or cells: 208Fsrc3 transformed rat fibroblasts
T1 sequence (Q9WV87 1-563): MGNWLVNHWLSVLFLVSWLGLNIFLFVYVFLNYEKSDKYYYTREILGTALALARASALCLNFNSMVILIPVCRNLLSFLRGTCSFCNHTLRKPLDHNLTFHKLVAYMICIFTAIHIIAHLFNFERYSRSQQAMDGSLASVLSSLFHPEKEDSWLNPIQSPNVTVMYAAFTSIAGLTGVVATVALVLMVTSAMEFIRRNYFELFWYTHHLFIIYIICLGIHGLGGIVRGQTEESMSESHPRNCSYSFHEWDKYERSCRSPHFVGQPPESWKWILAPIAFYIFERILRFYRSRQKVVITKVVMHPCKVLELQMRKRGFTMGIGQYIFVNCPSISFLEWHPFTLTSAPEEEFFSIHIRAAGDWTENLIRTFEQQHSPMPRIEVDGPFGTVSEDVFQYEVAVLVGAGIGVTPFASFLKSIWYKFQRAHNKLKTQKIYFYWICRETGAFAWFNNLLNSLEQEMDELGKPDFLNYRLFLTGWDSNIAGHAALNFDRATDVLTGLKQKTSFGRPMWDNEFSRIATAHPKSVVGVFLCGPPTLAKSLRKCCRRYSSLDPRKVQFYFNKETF
T1 sequence (Q62737 1-192 partner): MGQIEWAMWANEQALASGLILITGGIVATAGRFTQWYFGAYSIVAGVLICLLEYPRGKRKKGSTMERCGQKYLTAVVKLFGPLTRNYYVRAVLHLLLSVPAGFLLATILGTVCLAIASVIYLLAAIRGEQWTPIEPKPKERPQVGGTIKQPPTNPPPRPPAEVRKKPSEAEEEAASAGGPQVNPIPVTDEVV
Assay: superoxide anion concentration after inhibition of NADPH oxidase (Cu SOD bell curve shift)
Assay type: cell-based
Conditions: 208Fsrc3, 120 μM EUK-8, 5 hours
Method: 12 500 208Fsrc3 cells (100 μl) received the stated concentrations of Cu SOD and 120 μM EUK-8. In addition the stated concentrations of the NADPH oxidase inhibitor AEBSF (4-(2-Aminoethyl)-benzenesulfonyl fluoride) were added. Control preparations remained free of AEBSF. After 5 hours the percentages of apoptotic cells were determined in duplicate preparations.

NCCc1ccc(S(=O)(=O)F)cc1 [AEBSF, 4-(2-Aminoethyl)-benzenesulfonyl fluoride]
reduction in superoxide anion concentration on doubling of the inhibitor concentration: fourfold
